# Measured values reported in the OligoGym collection.
# HELM strings list units from the 5' end as sugar, base in round brackets, then linkage (d deoxyribose, r ribose, m 2'-O-methyl, p phosphodiester). Strings are as the collection lists them; they lack the last nucleoside at the 3' end of the tested compound. [moe] = 2'-O-(2-methoxyethyl) (MOE); [sp] = phosphorothioate linkage; [m5C] = 5-methylcytosine
# Biological target: GFAP
# Assay: mouse, dose not given
# Details: ASO
row,Substance,3 h FOB score
1,RNA1{[moe](G)[sp].[moe](T)p.[moe](G)p.[moe](T)p.d(A)[sp].d(T)[sp].d(T)[sp].d(A)[sp].d(G)[sp].d(G)[sp].d(A)[sp].d(T)[sp].d([m5C])[sp].d([m5C])[sp].[moe]([m5C])p.[moe](A)p.[moe](T)p.[moe]([m5C])[sp].[moe](T)}$$$$ (last 3' nucleoside missing),3 score 0-7
2,RNA1{[moe](G)[sp].[moe]([m5C])p.[moe](A)p.[moe](G)p.[moe]([m5C])[sp].d(A)[sp].d(T)[sp].d(T)[sp].d(T)[sp].d(G)[sp].d(T)[sp].d([m5C])[sp].d(T)[sp].d(T)[sp].d(T)[sp].[moe](A)p.[moe](T)p.[moe](T)[sp].[moe](T)}$$$$ (last 3' nucleoside missing),4 score 0-7
3,RNA1{[moe](T)[sp].[moe](G)p.[moe](G)p.[moe](T)p.d(G)[sp].d([m5C])[sp].d(T)[sp].d(T)[sp].d(T)[sp].d(T)[sp].d(G)[sp].d([m5C])[sp].d([m5C])[sp].d([m5C])[sp].[moe]([m5C])p.[moe]([m5C])p.[moe](T)p.[moe](G)[sp].[moe](T)}$$$$ (last 3' nucleoside missing),1 score 0-7
4,RNA1{[moe](T)[sp].[moe](G)p.[moe](G)p.[moe]([m5C])p.[moe](A)[sp].d(G)[sp].d(T)[sp].d(A)[sp].d(T)[sp].d(T)[sp].d(A)[sp].d([m5C])[sp].d([m5C])[sp].[moe](T)p.[moe]([m5C])p.[moe](T)[sp].[moe](A)}$$$$ (last 3' nucleoside missing),0 score 0-7
5,RNA1{[moe](T)[sp].[moe]([m5C])p.[moe](T)p.[moe](G)p.[moe]([m5C])[sp].d([m5C])[sp].d(A)[sp].d(T)[sp].d(T)[sp].d(T)[sp].d(A)[sp].d(T)[sp].d([m5C])[sp].d(T)[sp].d(G)[sp].[moe](T)p.[moe](G)p.[moe]([m5C])[sp].[moe](T)}$$$$ (last 3' nucleoside missing),0 score 0-7
6,RNA1{[moe](T)[sp].[moe]([m5C])p.[moe]([m5C])p.[moe](T)p.[moe](G)[sp].d([m5C])[sp].d([m5C])[sp].d(T)[sp].d([m5C])[sp].d(A)[sp].d([m5C])[sp].d(A)[sp].d(T)[sp].d([m5C])[sp].d(A)[sp].[moe]([m5C])p.[moe](A)p.[moe](T)[sp].[moe]([m5C])}$$$$ (last 3' nucleoside missing),0 score 0-7
7,RNA1{[moe](G)[sp].[moe](G)p.[moe](G)p.[moe]([m5C])p.[moe](A)[sp].d(T)[sp].d(G)[sp].d(A)[sp].d(G)[sp].d([m5C])[sp].d([m5C])[sp].d(A)[sp].d(T)[sp].d([m5C])[sp].d([m5C])[sp].[moe](T)p.[moe]([m5C])p.[moe](T)[sp].[moe]([m5C])}$$$$ (last 3' nucleoside missing),3 score 0-7
8,RNA1{[moe]([m5C])[sp].[moe]([m5C])p.[moe](A)p.[moe](T)p.[moe](T)[sp].d(T)[sp].d(A)[sp].d(T)[sp].d([m5C])[sp].d(T)[sp].d(G)[sp].d(T)[sp].d(G)[sp].d([m5C])[sp].d(T)[sp].[moe](T)p.[moe](T)p.[moe](A)[sp].[moe](G)}$$$$ (last 3' nucleoside missing),6 score 0-7
9,RNA1{[moe](G)[sp].[moe](T)p.[moe](G)p.[moe](A)p.[moe]([m5C])[sp].d(T)[sp].d(A)[sp].d(T)[sp].d([m5C])[sp].d(T)[sp].d(A)[sp].d(G)[sp].d(G)[sp].d(A)[sp].d(T)[sp].[moe](T)p.[moe](T)p.[moe](G)[sp].[moe](G)}$$$$ (last 3' nucleoside missing),6 score 0-7
10,RNA1{[moe](G)[sp].[moe](G)p.[moe](T)p.[moe](A)p.[moe](A)[sp].d(G)[sp].d([m5C])[sp].d(T)[sp].d(G)[sp].d([m5C])[sp].d(T)[sp].d(G)[sp].d(G)[sp].d(A)[sp].d(G)[sp].[moe](T)p.[moe](A)p.[moe](A)[sp].[moe](G)}$$$$ (last 3' nucleoside missing),7 score 0-7
11,RNA1{[moe](T)[sp].[moe](G)p.[moe]([m5C])p.[moe]([m5C])p.[moe](A)p.[moe](T)p.d(T)[sp].d(T)[sp].d(A)[sp].d(T)[sp].d([m5C])[sp].d(T)[sp].d(G)[sp].d(T)[sp].d(G)[sp].d([m5C])[sp].[moe](T)p.[moe](T)[sp].[moe](T)}$$$$ (last 3' nucleoside missing),2 score 0-7
12,RNA1{[moe](G)[sp].[moe](G)p.[moe](T)p.[moe]([m5C])p.[moe]([m5C])[sp].d(T)[sp].d(A)[sp].d(A)[sp].d(A)[sp].d(T)[sp].d(A)[sp].d(T)[sp].d(T)[sp].d([m5C])[sp].d(T)[sp].[moe](A)p.[moe](G)p.[moe](T)[sp].[moe]([m5C])}$$$$ (last 3' nucleoside missing),1 score 0-7
13,RNA1{[moe]([m5C])[sp].[moe](T)p.[moe](A)p.[moe](G)p.[moe](T)p.[moe]([m5C])p.d(A)[sp].d(G)[sp].d([m5C])[sp].d([m5C])[sp].d(T)[sp].d(G)[sp].d(G)[sp].d(T)[sp].d(T)[sp].d(A)[sp].[moe](G)p.[moe]([m5C])[sp].[moe]([m5C])}$$$$ (last 3' nucleoside missing),4 score 0-7
14,RNA1{[moe](T)[sp].[moe](T)p.[moe](T)p.[moe](G)p.[moe](T)p.[moe]([m5C])p.d(T)[sp].d(T)[sp].d(T)[sp].d(A)[sp].d(T)[sp].d(T)[sp].d(T)[sp].d(T)[sp].d(T)[sp].d([m5C])[sp].[moe]([m5C])p.[moe](T)[sp].[moe]([m5C])}$$$$ (last 3' nucleoside missing),0 score 0-7
15,RNA1{[moe]([m5C])[sp].[moe](A)p.[moe](G)p.[moe](T)p.[moe](A)p.d(T)[sp].d(T)[sp].d(A)[sp].d([m5C])[sp].d([m5C])[sp].d(T)[sp].d([m5C])[sp].d(T)[sp].d(A)[sp].d([m5C])[sp].[moe](T)p.[moe](A)p.[moe](G)[sp].[moe](T)}$$$$ (last 3' nucleoside missing),0 score 0-7
16,RNA1{[moe](G)[sp].[moe]([m5C])p.[moe](T)p.[moe](T)p.[moe](T)[sp].d(T)[sp].d(G)[sp].d(A)[sp].d(G)[sp].d(A)[sp].d(T)[sp].d(A)[sp].d(T)[sp].d([m5C])[sp].d(T)[sp].[moe](T)p.[moe](G)p.[moe](T)[sp].[moe](G)}$$$$ (last 3' nucleoside missing),2 score 0-7
17,RNA1{[moe](G)[sp].[moe](G)p.[moe]([m5C])p.[moe]([m5C])p.[moe](T)[sp].d(A)[sp].d([m5C])[sp].d(T)[sp].d(T)[sp].d([m5C])[sp].d(T)[sp].d([m5C])[sp].d(T)[sp].d(A)[sp].d(G)[sp].[moe](G)p.[moe](T)p.[moe](G)[sp].[moe](G)}$$$$ (last 3' nucleoside missing),1 score 0-7
18,RNA1{[moe](G)[sp].[moe](G)p.[moe](G)p.[moe]([m5C])p.[moe](A)[sp].d([m5C])[sp].d(T)[sp].d(A)[sp].d([m5C])[sp].d([m5C])[sp].d(T)[sp].d(A)[sp].d(G)[sp].d(A)[sp].d(A)[sp].[moe](T)p.[moe](A)p.[moe]([m5C])[sp].[moe](T)}$$$$ (last 3' nucleoside missing),5 score 0-7
19,RNA1{[moe](T)[sp].[moe](T)p.[moe](T)p.[moe](G)p.[moe](G)p.d([m5C])[sp].d(A)[sp].d(G)[sp].d(T)[sp].d(A)[sp].d(T)[sp].d(T)[sp].d(A)[sp].d([m5C])[sp].d([m5C])[sp].[moe](T)p.[moe]([m5C])p.[moe](T)[sp].[moe](A)}$$$$ (last 3' nucleoside missing),1 score 0-7
20,RNA1{[moe](T)[sp].[moe](G)p.[moe](T)p.[moe]([m5C])p.[moe](T)[sp].d(T)[sp].d(T)[sp].d(A)[sp].d(T)[sp].d(T)[sp].d(T)[sp].d(T)[sp].d(T)[sp].d([m5C])[sp].d([m5C])[sp].[moe](T)p.[moe]([m5C])p.[moe](A)[sp].[moe](G)}$$$$ (last 3' nucleoside missing),2 score 0-7
21,RNA1{[moe]([m5C])[sp].[moe](A)p.[moe](G)p.[moe]([m5C])p.[moe]([m5C])p.[moe](T)p.d(G)[sp].d(G)[sp].d(T)[sp].d(T)[sp].d(A)[sp].d(G)[sp].d([m5C])[sp].d([m5C])[sp].d(T)[sp].d(T)[sp].[moe](T)p.[moe]([m5C])[sp].[moe](T)}$$$$ (last 3' nucleoside missing),4 score 0-7
22,RNA1{[moe](A)[sp].[moe](G)p.[moe](G)p.[moe]([m5C])p.[moe](T)[sp].d(T)[sp].d(T)[sp].d(T)[sp].d(G)[sp].d(A)[sp].d(G)[sp].d(A)[sp].d(T)[sp].d(A)[sp].d(T)[sp].[moe]([m5C])p.[moe](T)p.[moe](T)[sp].[moe](G)}$$$$ (last 3' nucleoside missing),6 score 0-7
23,RNA1{[moe](G)[sp].[moe](G)p.[moe](T)p.[moe](G)p.[moe](G)[sp].d(G)[sp].d(T)[sp].d(G)[sp].d([m5C])[sp].d([m5C])[sp].d(G)[sp].d(T)[sp].d([m5C])[sp].d(T)[sp].d(G)[sp].[moe](G)p.[moe]([m5C])p.[moe](A)[sp].[moe](G)}$$$$ (last 3' nucleoside missing),7 score 0-7
24,RNA1{[moe](A)[sp].[moe](T)p.[moe](T)p.[moe](T)p.d(G)[sp].d(G)[sp].d([m5C])[sp].d(A)[sp].d(G)[sp].d(T)[sp].d(A)[sp].d(T)[sp].d(T)[sp].d(A)[sp].[moe]([m5C])p.[moe]([m5C])p.[moe](T)p.[moe]([m5C])[sp].[moe](T)}$$$$ (last 3' nucleoside missing),3 score 0-7
25,RNA1{[moe](G)[sp].[moe]([m5C])p.[moe](T)p.[moe](T)p.d(T)[sp].d(T)[sp].d(G)[sp].d([m5C])[sp].d([m5C])[sp].d([m5C])[sp].d([m5C])[sp].d([m5C])[sp].d(T)[sp].d(G)[sp].[moe](T)p.[moe](A)p.[moe](G)p.[moe](T)[sp].[moe](G)}$$$$ (last 3' nucleoside missing),3 score 0-7
26,RNA1{[moe]([m5C])[sp].[moe]([m5C])p.[moe]([m5C])p.[moe]([m5C])p.[moe](T)[sp].d([m5C])[sp].d(T)[sp].d(T)[sp].d([m5C])[sp].d([m5C])[sp].d(T)[sp].d([m5C])[sp].d([m5C])[sp].d(A)[sp].d(G)[sp].[moe]([m5C])p.[moe]([m5C])p.[moe](G)[sp].[moe]([m5C])}$$$$ (last 3' nucleoside missing),3 score 0-7
